Measurements: US12668599B2, “Heterobifunctional compounds and methods of treating disease” (Halda Therapeutics OpCo, Inc., priority 2023, dated 2026)

How the values were obtained:
[1] = tested on: VCaP cells; test: Cellular growth inhibition assay for VCaP cells (CellTiter-Glo 2.0, 72 hours); assay type: cell-based, human
[2] = tested on: T47D cells; test: Cellular growth inhibition assay for T47D cells (CellTiter-Glo 2.0, 72 hours); assay type: cell-based, human; conditions: Homo sapiens, T47D, 72 h
Procedure: Exemplary compounds were tested for ability to inhibit the proliferation of T47D cells. T47D cells are a commercially available human breast cancer cell line.
T47D cells were purchased from American Type Cell Culture (ATCC Cat #HTB-133) and then seeded on poly-D-lysine coated, black clear-bottom 384-well plates at 3000/well in 25 μL Dulbecco's Modified Eagle Medium (DMEM) supplemented with 10% w/w Fetal bovine serum (FBS), 0.2 units/mL recombinant human insulin (Gibco Cat #12585014), and 1% w/w Pen-Strep. Pen-Strep is a commercially available mixture of penicillin G and streptomycin, which is used in mammalian cell culture media to prevent bacterial contamination. Dulbecco's Modified Eagle Medium (DMEM) supplemented with 10% w/w fetal bovine serum (FBS), 0.2 units/mL recombinant human insulin, and 1% w/w Pen-Strep is herein referred to as Treatment Medium. Following seeding of cells in the plates, the plates were spun at 300×g for 30 seconds, then equilibrated to room temperature for 30 minutes, and then deposited in a humidified tissue culture incubator maintained at 37° C. with 5% CO2.
At 24 hours after seeding of the cells, dilutions of test compound were prepared in DMSO and dissolved in Treatment Medium, to achieve a final DMSO concentration of 0.5% w/w, thereby providing the Test Compound Solution. A 25 μL aliquot of the Test Compound Solution was added to cells in the well plates. An equal volume of a solution containing DMSO and Treatment Medium was used as a negative control. Following treatment of cells with Test Compound Solution or said equal volume of a solution containing DMSO and Treatment Medium, the plates were spun at 300×g for 30 seconds, and then left in an incubator for 72 hours.
At the end of the treatment duration, cell viability was quantified with CellTiter-Glo 2.0 reagent (Promega Cat #G9243). For this purpose, plates were equilibrated to room temperature for 30 minutes, and then 25 μL of CellTiter-Glo 2.0 reagent was added to cells in the plate wells. Plates were then agitated on a shaker for two minutes at 500 rpm and subsequently incubated at room temperature for 10 minutes. Following incubation, the plates were spun at 3000×g for 30 seconds, then sealed with an optical adhesive cover, and luminescence readings were measured with an En Vision Plate Reader (Perkin Elmer).
Data was normalized using zero luminescence for baseline. A four-parameter non-linear regression curve fit was applied to dose-response data in GraphPad Prism data analysis software to determine the half-maximal growth inhibitory concentration (GI50) for each test compound.

[3] = tested on: VCaP cell tumors; test: Castrate VCaP tumor xenograft study, tumor growth; assay type: in vivo; conditions: castrated CB17.SCID mice bearing VCaP tumors, oral gavage; same mg/kg dose and dosing frequency for Compound II-5 and Compound A, FIG. 8
Procedure: Compound II-5 was evaluated for in vivo performance when administered to CB17.SCID mice bearing VCaP cell tumors.
5M VCaP cells were subcutaneously implanted into CB17.SCID mice in 50% Matrigel (Corning). Mice were castrated under anesthesia once tumor volumes reached 100 mm^3. Tumors were then allowed to reach an average of approximately 150 mm^3 before randomization into efficacy arms. Tumors were measured twice weekly for Tumor Growth Inhibition (TGI) calculation. For PK/PD analysis, tumors were allowed to reach an average of 400 mm^3, before dosing the mice with test compound by oral gavage (n=5) for seven days. Mice were sacrificed 24 hours following the final dose, and tumors were harvested for downstream analysis. Plasma samples were collected from all dosed mice 2 hours following the final dose to determine test compound exposure by LC-MS/MS. Test compounds used in the experiment were (i) Compound II-5 and (ii) a commercially available nonsteroidal antiandrogen medication that has been approved by the United States Food and Drug Administration for treatment of prostate cancer (hereinafter “Compound A”).

COc1cc(O[C@H]2C(C)(C)[C@H](NC(=O)c3cnc(N4CCC5(CC4)CC(Oc4ccc(C6=N[C@@H](Cc7ncco7)c7nnc(C)n7-c7sc(C)c(C)c76)cc4)C5)nc3)C2(C)C)ccc1C#N [II-5, N-[(1r,3r)-3-(4-cyano-3-methoxy-phenoxy)-2,2,4,4-tetramethyl-cyclobutyl]-2-[2-[4-[(9S)-4,5,13-trimethyl-9-(oxazol-2-ylmethyl)-3-thia-1,8,11,12-tetrazatricyclo[8.3.0.0^2,6]trideca-2 (6),4,7,10,12-pentaen-7-yl]phenoxy]-7-azaspiro[3.5]nonan-7-yl]pyrimidine-5-carboxamide]
Ratio of GI50's ([1]; GI50 of the top compound in the pair divided by GI50 of the lower compound): 1
GI50 ([1]; Homo sapiens, VCaP, 72 h, CellTiter-Glo 2.0): < 500 nM
GI50 [2]: < 500 nM
tumor growth inhibition (tumor volume) [3]: more effective in reducing tumor growth in this experiment than Compound A
